Assay [1] has as its target Acyl-protein thioesterase 2 (Homo sapiens) (UniProt O95372). As to the kind of experiment: LYPLA1 inhibitor selectivity over serine hydrolases, late-stage follow-up, selectivity assay for LYPLA1 inhibitor project, cell lysate, competitive ABPP, HEK293T proteome, set 2 (AID 652018).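 Note: 0% = DMSO-only band intensity and 100% = blank gel background.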 To be noted: competitive ABPP FP-PEG-Rh gel, stronger effect = higher value.
Assay [2] addresses Acyl-protein thioesterase 1 (Homo sapiens) (UniProt O75608). The description is as above. To be noted: competitive ABPP FP-PEG-Rh gel, stronger effect = higher value.

The source made the active and inactive calls.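 Rule for the calls: active = at least 50% inhibition of LYPLA1 or LYPLA2 at 300 nM, with no off-target enzyme hit at any dose; inactive = under 50% inhibition on both enzymes, or any off-target hit.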

Chain of Acyl-protein thioesterase 2 (Homo sapiens) (O95372 whole entry, looked up): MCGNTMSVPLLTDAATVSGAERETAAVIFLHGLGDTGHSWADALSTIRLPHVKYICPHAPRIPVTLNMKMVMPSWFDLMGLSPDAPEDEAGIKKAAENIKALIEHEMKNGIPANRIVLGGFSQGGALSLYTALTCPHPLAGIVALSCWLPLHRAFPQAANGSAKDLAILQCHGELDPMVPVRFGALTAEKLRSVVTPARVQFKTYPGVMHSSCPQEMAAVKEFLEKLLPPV
Chain of Acyl-protein thioesterase 1 (Homo sapiens) (O75608 whole entry, looked up): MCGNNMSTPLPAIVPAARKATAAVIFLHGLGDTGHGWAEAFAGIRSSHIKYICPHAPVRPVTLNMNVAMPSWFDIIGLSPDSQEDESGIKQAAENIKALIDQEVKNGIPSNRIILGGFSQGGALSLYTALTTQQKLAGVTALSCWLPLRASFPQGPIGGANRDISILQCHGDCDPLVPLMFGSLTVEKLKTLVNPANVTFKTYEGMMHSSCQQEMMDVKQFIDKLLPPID

The inhibition is the change of the read-out against control, counted positive when it falls. As to `COc1ccc(N2CCN(C(=O)n3nc(Br)nc3Br)CC2)cc1`, the inhibition was 95% (inactive) in assay [1] (LYPLA2, at 10 µM); 10% in assay [1] (LYPLA2, inhibition, at 0.3 µM); 30% in assay [1] (LYPLA2, inhibition, at 1 µM); 95% (inactive) in assay [2] (LYPLA1, at 10 µM); 20% in assay [2] (LYPLA1, inhibition, at 0.3 µM); 60% in assay [2] (LYPLA1, inhibition, at 1 µM).

As to `O=C(CN1CCN(C(=O)n2nccn2)CC1)Nc1cc(C(F)(F)F)ccc1Cl`, the inhibition in assay [1] (LYPLA2, at 10 µM) is 95% (inactive); in assay [1] (LYPLA2, inhibition, at 0.3 µM), 30%; in assay [1] (LYPLA2, inhibition, at 1 µM) it was 40%; in assay [2] (LYPLA1, at 10 µM), 95% (inactive); in assay [2] (LYPLA1, inhibition, at 0.3 µM), 30%; in assay [2] (LYPLA1, inhibition, at 1 µM), 60%.

On to `COc1ccc(N2CCN(C(=O)n3ncc(-c4ccc(OC(F)(F)F)cc4)n3)CC2)cc1`, for which the inhibition is 20% (inactive) in assay [1] (LYPLA2, at 10 µM); 10% in assay [1] (LYPLA2, inhibition, at 0.3 µM); 10% in assay [1] (LYPLA2, inhibition, at 1 µM); 20% (inactive) in assay [2] (LYPLA1, at 10 µM); 10% in assay [2] (LYPLA1, inhibition, at 0.3 µM); 10% in assay [2] (LYPLA1, inhibition, at 1 µM).

Consider `COc1ccc(N2CCN(C(=O)n3ncc(C(O)(c4ccccc4)c4ccccc4)n3)CC2)cc1`, for which the inhibition in assay [1] (LYPLA2, at 10 µM) is 100%; in assay [1] (LYPLA2, inhibition, at 0.3 µM) it was 75%; in assay [1] (LYPLA2, inhibition, at 1 µM) it was 100%; in assay [2] (LYPLA1, at 10 µM) it was 95%; in assay [2] (LYPLA1, inhibition, at 0.3 µM) it was 95%; in assay [2] (LYPLA1, inhibition, at 1 µM), 95%.

With `O=C(CN1CCN(C(=O)n2cc(-c3ccc(-c4ccccc4)cc3)nn2)CC1)Nc1cc(C(F)(F)F)ccc1Cl`, the inhibition was 30% (inactive) in assay [1] (LYPLA2, at 10 µM); 30% in assay [1] (LYPLA2, inhibition, at 0.3 µM); 30% in assay [1] (LYPLA2, inhibition, at 1 µM); 30% (inactive) in assay [2] (LYPLA1, at 10 µM); 30% in assay [2] (LYPLA1, inhibition, at 0.3 µM); 30% in assay [2] (LYPLA1, inhibition, at 1 µM).

As for `O=C(CN1CCN(C(=O)n2ncc(C(O)(c3ccccc3)c3ccccc3)n2)CC1)Nc1cc(C(F)(F)F)ccc1Cl`, the inhibition is 100% in assay [1] (LYPLA2, at 10 µM); 100% in assay [1] (LYPLA2, inhibition, at 0.3 µM); 100% in assay [1] (LYPLA2, inhibition, at 1 µM); 95% in assay [2] (LYPLA1, at 10 µM); 95% in assay [2] (LYPLA1, inhibition, at 0.3 µM); 95% in assay [2] (LYPLA1, inhibition, at 1 µM).

Consider `O=C(CN1CCN(C(=O)n2cc(-c3ccc(OC(F)(F)F)cc3)nn2)CC1)Nc1cc(C(F)(F)F)ccc1Cl`, for which the inhibition is 30% (inactive) in assay [1] (LYPLA2, at 10 µM); 30% in assay [1] (LYPLA2, inhibition, at 0.3 µM); 30% in assay [1] (LYPLA2, inhibition, at 1 µM); 60% (inactive) in assay [2] (LYPLA1, at 10 µM); 30% in assay [2] (LYPLA1, inhibition, at 0.3 µM); 30% in assay [2] (LYPLA1, inhibition, at 1 µM).

With `O=C(CN1CCN(C(=O)n2ncc(-c3ccc(Br)cc3)n2)CC1)Nc1cc(C(F)(F)F)ccc1Cl`, the inhibition in assay [1] (LYPLA2, at 10 µM) is 75%; in assay [1] (LYPLA2, inhibition, at 0.3 µM) it was 50%; in assay [1] (LYPLA2, inhibition, at 1 µM) it was 40%; in assay [2] (LYPLA1, at 10 µM), 80%; in assay [2] (LYPLA1, inhibition, at 0.3 µM), 70%; in assay [2] (LYPLA1, inhibition, at 1 µM) it was 70%.

`COc1ccc(N2CCN(C(=O)n3cncn3)CC2)cc1`: the inhibition in assay [1] (LYPLA2, at 10 µM) is 95% (inactive); in assay [1] (LYPLA2, inhibition, at 0.3 µM), 10%; in assay [1] (LYPLA2, inhibition, at 1 µM) it was 30%; in assay [2] (LYPLA1, at 10 µM) it was 95% (inactive); in assay [2] (LYPLA1, inhibition, at 0.3 µM), 20%; in assay [2] (LYPLA1, inhibition, at 1 µM) it was 75%.

On to `O=C(CN1CCN(C(=O)n2cncn2)CC1)Nc1cc(C(F)(F)F)ccc1Cl`, for which the inhibition in assay [1] (LYPLA2, at 10 µM) is 30% (inactive); in assay [1] (LYPLA2, inhibition, at 0.3 µM), 30%; in assay [1] (LYPLA2, inhibition, at 1 µM), 30%; in assay [2] (LYPLA1, at 10 µM), 30% (inactive); in assay [2] (LYPLA1, inhibition, at 0.3 µM), 30%; in assay [2] (LYPLA1, inhibition, at 1 µM), 30%.

Regarding `COc1ccc(N2CCN(C(=O)n3cc(-c4ccc(OC(F)(F)F)cc4)nn3)CC2)cc1`, the inhibition in assay [1] (LYPLA2, at 10 µM) was 60% (inactive); in assay [1] (LYPLA2, inhibition, at 0.3 µM), 10%; in assay [1] (LYPLA2, inhibition, at 1 µM), 10%; in assay [2] (LYPLA1, at 10 µM), 80% (inactive); in assay [2] (LYPLA1, inhibition, at 0.3 µM), 20%; in assay [2] (LYPLA1, inhibition, at 1 µM) it was 20%.

`COc1ccc(N2CCN(C(=O)n3ccnn3)CC2)cc1`: the inhibition is 85% (inactive) in assay [1] (LYPLA2, at 10 µM); 10% in assay [1] (LYPLA2, inhibition, at 0.3 µM); 30% in assay [1] (LYPLA2, inhibition, at 1 µM); 90% (inactive) in assay [2] (LYPLA1, at 10 µM); 20% in assay [2] (LYPLA1, inhibition, at 0.3 µM); 50% in assay [2] (LYPLA1, inhibition, at 1 µM).

For the compound `O=C(CN1CCN(C(=O)n2cc(C(O)(c3ccccc3)c3ccccc3)nn2)CC1)Nc1cc(C(F)(F)F)ccc1Cl`, the inhibition in assay [1] (LYPLA2, at 10 µM) was 100%; in assay [1] (LYPLA2, inhibition, at 0.3 µM), 60%; in assay [1] (LYPLA2, inhibition, at 1 µM), 85%; in assay [2] (LYPLA1, at 10 µM), 95%; in assay [2] (LYPLA1, inhibition, at 0.3 µM), 80%; in assay [2] (LYPLA1, inhibition, at 1 µM), 90%.

Turning to `COc1ccc(N2CCN(C(=O)n3nc(Br)c(Br)n3)CC2)cc1`, the inhibition in assay [1] (LYPLA2, at 10 µM) was 100%; in assay [1] (LYPLA2, inhibition, at 0.3 µM), 50%; in assay [1] (LYPLA2, inhibition, at 1 µM), 80%; in assay [2] (LYPLA1, at 10 µM) it was 95%; in assay [2] (LYPLA1, inhibition, at 0.3 µM), 85%; in assay [2] (LYPLA1, inhibition, at 1 µM), 95%.

Turning to `O=C(N1CCN(c2ccc(Cl)c(Cl)c2)CC1)n1ncc(C(O)(c2ccccc2)c2ccccc2)n1`, the inhibition in assay [1] (LYPLA2, at 10 µM) was 30% (inactive); in assay [1] (LYPLA2, inhibition, at 0.3 µM), 20%; in assay [1] (LYPLA2, inhibition, at 1 µM), 30%; in assay [2] (LYPLA1, at 10 µM), 80% (inactive); in assay [2] (LYPLA1, inhibition, at 0.3 µM), 30%; in assay [2] (LYPLA1, inhibition, at 1 µM) it was 40%.

Consider `COc1ccc(N2CCN(C(=O)n3cc(C(O)(c4ccccc4)c4ccccc4)nn3)CC2)cc1`, for which the inhibition in assay [1] (LYPLA2, at 10 µM) is 100% (inactive); in assay [1] (LYPLA2, inhibition, at 0.3 µM) it was 20%; in assay [1] (LYPLA2, inhibition, at 1 µM), 95%; in assay [2] (LYPLA1, at 10 µM), 95%; in assay [2] (LYPLA1, inhibition, at 0.3 µM), 85%; in assay [2] (LYPLA1, inhibition, at 1 µM) it was 95%.

Take `COc1ccc(N2CCN(C(=O)n3nccn3)CC2)cc1`: the inhibition in assay [1] (LYPLA2, at 10 µM) was 100% (inactive); in assay [1] (LYPLA2, inhibition, at 0.3 µM), 10%; in assay [1] (LYPLA2, inhibition, at 1 µM) it was 60%; in assay [2] (LYPLA1, at 10 µM), 95% (inactive); in assay [2] (LYPLA1, inhibition, at 0.3 µM) it was 20%; in assay [2] (LYPLA1, inhibition, at 1 µM), 80%.

Take `O=C(N1CCN(c2ccc(Br)cc2)CC1)n1ncc(C(O)(c2ccccc2)c2ccccc2)n1`: the inhibition in assay [1] (LYPLA2, at 10 µM) was 80% (inactive); in assay [1] (LYPLA2, inhibition, at 0.3 µM) it was 20%; in assay [1] (LYPLA2, inhibition, at 1 µM), 30%; in assay [2] (LYPLA1, at 10 µM), 100% (inactive); in assay [2] (LYPLA1, inhibition, at 0.3 µM) it was 40%; in assay [2] (LYPLA1, inhibition, at 1 µM), 90%.

For the compound `O=C(CN1CCN(C(=O)n2ncc(-c3ccc(OC(F)(F)F)cc3)n2)CC1)Nc1cc(C(F)(F)F)ccc1Cl`, the inhibition is 95% (inactive) in assay [1] (LYPLA2, at 10 µM); 30% in assay [1] (LYPLA2, inhibition, at 0.3 µM); 30% in assay [1] (LYPLA2, inhibition, at 1 µM); 90% (inactive) in assay [2] (LYPLA1, at 10 µM); 30% in assay [2] (LYPLA1, inhibition, at 0.3 µM); 30% in assay [2] (LYPLA1, inhibition, at 1 µM).

As for `COc1ccc(N2CCN(C(=O)n3ncc(-c4ccccc4)n3)CC2)cc1`, the inhibition was 30% (inactive) in assay [1] (LYPLA2, at 10 µM); 10% in assay [1] (LYPLA2, inhibition, at 0.3 µM); 30% in assay [1] (LYPLA2, inhibition, at 1 µM); 30% (inactive) in assay [2] (LYPLA1, at 10 µM); 20% in assay [2] (LYPLA1, inhibition, at 0.3 µM); 30% in assay [2] (LYPLA1, inhibition, at 1 µM).

On to `O=C(CN1CCN(C(=O)n2ncc(-c3ccc(-c4ccccc4)cc3)n2)CC1)Nc1cc(C(F)(F)F)ccc1Cl`, for which the inhibition in assay [1] (LYPLA2, at 10 µM) is 30% (inactive); in assay [1] (LYPLA2, inhibition, at 0.3 µM) it was 30%; in assay [1] (LYPLA2, inhibition, at 1 µM) it was 30%; in assay [2] (LYPLA1, at 10 µM), 30% (inactive); in assay [2] (LYPLA1, inhibition, at 0.3 µM), 30%; in assay [2] (LYPLA1, inhibition, at 1 µM), 30%.

On to `O=C(CN1CCN(C(=O)n2nc(Br)nc2Br)CC1)Nc1cc(C(F)(F)F)ccc1Cl`, for which the inhibition in assay [1] (LYPLA2, at 10 µM) is 100% (inactive); in assay [1] (LYPLA2, inhibition, at 0.3 µM), 40%; in assay [1] (LYPLA2, inhibition, at 1 µM) it was 75%; in assay [2] (LYPLA1, at 10 µM) it was 95% (inactive); in assay [2] (LYPLA1, inhibition, at 0.3 µM), 45%; in assay [2] (LYPLA1, inhibition, at 1 µM), 85%.

Consider `O=C(CN1CCN(C(=O)n2nc(Br)c(Br)n2)CC1)Nc1cc(C(F)(F)F)ccc1Cl`, for which the inhibition in assay [1] (LYPLA2, at 10 µM) was 100%; in assay [1] (LYPLA2, inhibition, at 0.3 µM), 85%; in assay [1] (LYPLA2, inhibition, at 1 µM), 100%; in assay [2] (LYPLA1, at 10 µM), 95%; in assay [2] (LYPLA1, inhibition, at 0.3 µM) it was 90%; in assay [2] (LYPLA1, inhibition, at 1 µM), 90%.
